According to patent US5491155A, “Substituted thiadiazoles, compositions containing them and their use as antimicrobial and marine antifouling agents” (The Dow Chemical Company, priority 1994, dated 1996):
In brackets after ≈: the same amount, converted by molar mass. Where two headings read alike, the source gives them in different places.

How the values were obtained:
Candida albicans = assay: MIC in malt yeast agar, Candida albicans; format: cell-based, Candida albicans (ATCC 10231); details: Ca; malt yeast agar; 30° C.; 48 hours for yeast; read-out: Minimum Inhibitory Concentration (MIC)
Protocol: (§1) The minimum inhibitory concentration (MIC) for the compounds listed in Table I is determined for bacteria, using nutrient agar, and 7 yeast and fungi, using malt yeast agar. A one percent solution of the test compound is prepared in a mixture of acetone and water.
(§2) Malt yeast agar is prepared by adding 3 g yeast extract and 45 g malt agar per liter of deionized water. The specific agar is dispensed in 30 mL aliquots into 25×200 mm test tubes, capped and autoclaved for 15 minutes at 115° C.
(§3) The test tubes containing the agar are cooled in a water bath until the temperature of the agar is 48° C. Then, an appropriate amount of the one percent solution of the test compound is added (except in the controls where no compound is added) to the respective test tubes so that the final concentrations are 500, 250, 100, 50, 25, 10, 2.5, 1.0 and zero parts per million of the test compound in the agar, thus having a known concentration of test compound dispersed therein. The contents of the test tubes are then transferred to respective petri plates. After drying for 24 hours, the petri plates containing nutrient agar are inoculated with bacteria and those containing malt yeast agar are inoculated with yeast and fungi.
(§4) The inoculation with the yeast and fungi is accomplished as follows. Cultures of yeast and fungi are incubated for seven days on malt yeast agar at 30° C. These cultures are used to prepare suspensions by the following procedure. A suspension of each organism is prepared by adding 10 mL of sterile saline and 10 microliters of octylphenoxy polyethoxy ethanol to the agar slant of yeast or fungi. The sterile saline/octylphenoxy polyethoxy ethanol solution is then agitated with a sterile swab to suspend the microorganism grown on the slant. Each resulting suspension is diluted into sterile saline (1 part suspension: 9 parts sterile saline). Aliquots of these dilutions are placed in individual wells of Steer's Replicator and petri plates inoculated as previously described. The petri plates are incubated at 30° C. and read after 48 hours for yeast and 72 hours for fungi.
(§5) Table II lists the bacteria, yeast and fungi used in the MIC test described above along with their respective American Type Culture Collection (ATCC) identification numbers.
(§6) In Tables III and IV, the MIC values of the compounds described in Table I as compared to the MIC of a standard commercial preservative (with 1-(3-chloroalkyl)-3,5,7-triaza-1-azoniaadamantane chloride as the active agent and referred to in Tables III and IV as "STANDARD I") are set forth for the bacteria organisms and yeast/fungi organisms which are listed in Table II.

Aureobasidium pullulan = assay: MIC in malt yeast agar, Aureobasidium pullulan; format: cell-based, Aureobasidium pullulan (ATCC 16622); details: Ap; malt yeast agar; 30° C.; 72 hours for fungi; read-out: Minimum Inhibitory Concentration (MIC)
Protocol: as §1, §2, §3, §4, §5, §6

Salmonella choleraesuis = assay: MIC in nutrient agar, Salmonella choleraesuis; format: cell-based, Salmonella choleraesuis (ATCC 10708); details: Salmonella enterica, Sc, 48 hours, read-out: Minimum Inhibitory Concentration (MIC)
Protocol: as §1
(§7) Nutrient agar is prepared at pH 6.8, representing a neutral medium, and at pH 8.2, representing an alkaline medium. The nutrient agars are prepared by adding 23 g of nutrient agar to one-liter of deionized water. In addition, the alkaline medium is prepared by adjusting a 0.04M solution of N-(tris-(hydroxymethyl)methyl)glycine buffered deionized water with concentrated sodium hydroxide to a pH of 8.5.
as §3
(§8) The inoculation with bacteria is accomplished by using the following procedure. Twenty-four hour-cultures of each of the bacteria are prepared by incubating the respective bacteria in tubes containing nutrient broth for 24 hours at 30° C. in a shaker. Dilutions of each of the 24 hour-cultures are made so that nine separate suspensions (one for each of the nine test bacteria) are made, each containing 10^8 colony forming units (CFU) per mL of suspension of a particular bacteria. Aliquots of 0.3 mL of each of the bacterial suspensions are used to fill the individual wells of Steer's Replicator. For each microbial suspension, 0.3 mL was used to fill three wells (i.e., three wells of 0.3 mL each) so that for the nine different bacteria, 27 wells are filled. The Steer's Replicator is then used to inoculate both the neutral and alkaline pH nutrient agar petri plates.
(§9) The inoculated petri plates are incubated at 30° C. for 48 hours and then read to determine if the test compound which is incorporated into the agar prevented growth of the respective bacteria.
as §5, §6

Escherichia coli = assay: MIC in nutrient agar, Escherichia coli; format: cell-based, Escherichia coli (ATCC 11229); details: Ec, 48 hours, read-out: Minimum Inhibitory Concentration (MIC)
Protocol: as §1, §7, §3, §8, §9, §5, §6

Bacillus subtilis = assay: MIC in nutrient agar, Bacillus subtilis; format: cell-based, Bacillus subtilis (ATCC 8473); details: Bs, 48 hours, read-out: Minimum Inhibitory Concentration (MIC)
Protocol: as §1, §7, §3, §8, §9, §5, §6

Trichoderma viride = assay: MIC in malt yeast agar, Trichoderma viride; format: cell-based, Trichoderma viride (ATCC 8678); details: Tv; malt yeast agar; 30° C.; 72 hours for fungi; read-out: Minimum Inhibitory Concentration (MIC)
Protocol: as §1, §2, §3, §4, §5, §6

Fusarium oxysporum = assay: MIC in malt yeast agar, Fusarium oxysporum; format: cell-based, Fusarium oxysporum (ATCC 48112); details: Fo; malt yeast agar; 30° C.; 72 hours for fungi; read-out: Minimum Inhibitory Concentration (MIC)
Protocol: as §1, §2, §3, §4, §5, §6

Penicillium chrysogenum = assay: MIC in malt yeast agar, Penicillium chrysogenum; format: cell-based, Penicillium chrysogenum (ATCC 9480); details: Pc; malt yeast agar; 30° C.; 72 hours for fungi; read-out: Minimum Inhibitory Concentration (MIC)
Protocol: as §1, §2, §3, §4, §5, §6

Proteus vulgaris = assay: MIC in nutrient agar, Proteus vulgaris; format: cell-based, Proteus vulgaris (ATCC 881); details: Pv, 48 hours, read-out: Minimum Inhibitory Concentration (MIC)
Protocol: as §1, §7, §3, §8, §9, §5, §6

Klebsiella pneumonias = assay: MIC in nutrient agar, Klebsiella pneumonias; format: cell-based, Klebsiella pneumonias (ATCC 8308); details: Kp, 48 hours, read-out: Minimum Inhibitory Concentration (MIC)
Protocol: as §1, §7, §3, §8, §9, §5, §6

MIC (Candida albicans) | MIC (Aureobasidium pullulan) | MIC (Escherichia coli; pH 6.8, 30° C.) | MIC (Escherichia coli; pH 8.2, 30° C.) | MIC (Bacillus subtilis; pH 6.8, 30° C.) | MIC (Bacillus subtilis; pH 8.2, 30° C.) | MIC (Trichoderma viride) | MIC (Fusarium oxysporum) | MIC (Penicillium chrysogenum) | MIC (Proteus vulgaris; pH 6.8, 30° C.) | MIC (Proteus vulgaris; pH 8.2, 30° C.) | MIC (Klebsiella pneumonias; pH 6.8, 30° C.) | MIC (Klebsiella pneumonias; pH 8.2, 30° C.) | Structure (SMILES) | MIC (Salmonella choleraesuis; pH 6.8, 30° C.) | MIC (Salmonella choleraesuis; pH 8.2, 30° C.)
< 1 µg/mL | < 1 µg/mL | 25 µg/mL (≈ 125 µM) | 50 µg/mL (≈ 250 µM) | 25 µg/mL (≈ 125 µM) | 100 µg/mL (≈ 499 µM) | 5 µg/mL (≈ 25 µM) | 2.5 µg/mL (≈ 12.5 µM) | < 1 µg/mL | 25 µg/mL (≈ 125 µM) | 100 µg/mL (≈ 499 µM) | 25 µg/mL (≈ 125 µM) | 250 µg/mL (≈ 1250 µM) | N#CSc1nsnc1SC#N [Example 2, Bis(thiocyanato)-1,2,5-thiadiazole] | 25 µg/mL (≈ 125 µM) | 100 µg/mL (≈ 499 µM)
< 2.5 µg/mL | < 2.5 µg/mL | 25 µg/mL (≈ 85.5 µM) | < 10 µg/mL | < 10 µg/mL | < 10 µg/mL | 10 µg/mL (≈ 34.2 µM) | < 2.5 µg/mL | < 2.5 µg/mL | < 10 µg/mL | < 10 µg/mL | < 10 µg/mL | < 10 µg/mL | N#CSCSc1nsnc1SCSC#N [Example 4, Bis(thiomethylthiocyanato)-1,2,5-thiadiazole] | 25 µg/mL (≈ 85.5 µM) | 25 µg/mL (≈ 85.5 µM)
